Literature values as cited in patent publication US20230111190A1, “ORAL COMPOSITIONS WITH IMPROVED BIOAVAILABILITY AND METHODS OF MAKING THE SAME” (Nulixir Inc., priority 2021, published 2023).

What was measured:
[1] = n-octanol and water; categorization at pH = 7 unless stated otherwise
[2] = one study estimated
[3] = dependence on water content
[4] = in vivo
[5] = test system: many strains of fungi

Compound	logP [1]	other results
N#C[C@@]1(O[C@@H]2O[C@H](CO)[C@@H](O)[C@H](O)[C@H]2O)C=C[C@@H](O)C1 [tetraphyllin B]	~-2.5	–
CC(C)=CCC[C@](C)(O[C@@H]1O[C@H](CO)[C@@H](O)[C@H](O)[C@H]1O)[C@H]1CC[C@]2(C)[C@@H]1[C@H](O)C[C@@H]1[C@@]3(C)CC[C@H](O)C(C)(C)[C@@H]3[C@@H](O[C@@H]3O[C@H](CO)[C@@H](O)[C@H](O)[C@H]3O)C[C@]12C [ginsenoside rg1]	~0.8	–
O=C(/C=C/c1ccccc1)N1CCCC1 [(E)-1-cinnamoylpyrrolidine]	~2.2	–
O=C(O)c1cc(C(=O)O)c2c(n1)C(=O)C(=O)c1cc(C(=O)O)[nH]c1-2 [PQQ, pyrroloquinoline quinone]	~0.4	–
CC(C)=C[C@@H]1CO[C@]23C[C@]4(CO2)[C@H](CC[C@@H]2[C@@]5(C)CC[C@H](O[C@@H]6OC[C@H](O)[C@H](O[C@@H]7O[C@H](CO)[C@@H](O)[C@H](O)[C@H]7O)[C@H]6O[C@@H]6O[C@@H](CO)[C@H](O)[C@H]6O)C(C)(C)[C@@H]5CC[C@]24C)[C@H]3[C@@]1(C)O [bacopasaponin C]	~2	–
COc1cc(O)c2c(=O)c(OC)c(-c3ccc(O)cc3)oc2c1 [kumatakenin]	~2.5	–
schisandroside C	~1.6	–
COc1ccc2cc3[n+](cc2c1OC)CCc1cc2c(cc1-3)OCO2 [berberine]	–	affected by first-pass digestion [2]: 43%; bioavailability lost to hepatic metabolism [2]: minimal amount; not absorbed and eliminated via feces [2]: 56%; solubility in ethanol [3]: decreases rapidly with water content
COc1cc2c(c(OC)c1OC)-c1c(cc(OC)c(OC)c1OC)C[C@](C)(O)[C@@H](C)C2 [(+)-schisandrin]	~5	–
(-)-schisandrin C	~3.5	–
CC(=O)OC1C=CC(=O)N(C(=O)CCc2ccccc2)C1 (centres unmarked) [pipermethystine]	~1.8	–
COc1cc([C@H]2Oc3cc(O)c4c(=O)c(O)c(-c5ccc(O)cc5)oc4c3O[C@@H]2CO)ccc1O [rhodiolin]	~2	–
CC(/C=C/C=C(\C)C(=O)O[C@@H]1O[C@H](CO[C@@H]2O[C@H](CO)[C@@H](O)[C@H](O)[C@H]2O)[C@@H](O)[C@H](O)[C@H]1O)=C\C=C\C=C(C)\C=C\C=C(/C)C(=O)O[C@@H]1O[C@H](CO[C@@H]2O[C@H](CO)[C@@H](O)[C@H](O)[C@H]2O)[C@@H](O)[C@H](O)[C@H]1O [alpha-crocin]	~-1.5	–
COc1ccc([C@@]23C=CC(=O)C[C@@H]2N(C)CC3)cc1OC [mesembrenone]	~1.3	–
COc1cc(/C=C\c2ccc(OC)c(O)c2)oc(=O)c1 [11-hydroxyyangonin]	~2.2	–
bacopaside B	~2.8	–
COc1ccc(C23C=CC(O)CC2N(C)CC3)cc1OC (centres unmarked) [mesembrenol]	~2.4	–
COc1cc2c(c(OC)c1OC)-c1c(cc3c(c1OC)OCO3)CC(C)C(C)C2 (single isomer, unassigned; (-)) [(-)-schisandrin B]	~4	–
COc1nc2c(c(=O)n1C)n(C)c(=O)n2C [methylliberine]	~-0.083	–
COC1=CC(=O)O[C@@H](CCc2ccc3c(c2)OCO3)C1 [7,8-dihydromethysticin]	~2.2	–
Cn1c(=O)c2c(n(C)c1=O)n(C)c(=O)n2C [theacrine]	~-1.06	–
CC(C)=CCC[C@](C)(O[C@@H]1O[C@H](CO[C@@H]2O[C@H](CO)[C@@H](O)[C@H](O)[C@H]2O)[C@@H](O)[C@H](O)[C@H]1O)[C@H]1CC[C@]2(C)[C@@H]1[C@H](O)C[C@@H]1[C@@]3(C)CC[C@H](O[C@@H]4O[C@H](CO)[C@@H](O)[C@H](O)[C@H]4O[C@@H]4O[C@H](CO)[C@@H](O)[C@H](O)[C@H]4O)C(C)(C)[C@@H]3CC[C@]12C [ginsenoside rb1]	~-1	–

Compound	logP [1]	other results
COc1ccc(/C=C/c2cc(OC)cc(=O)o2)cc1 [yangonin]	~2.8	–
COC1=CC(=O)OC(/C=C/c2ccc(OC)cc2)C1 (centres unmarked) [5,6-dihydroyangonin]	~2.5	–
CCNC(=O)CC[C@H](N)C(=O)O [L-theanine]	~-3	–
tortuosomine	~3	–
herinacine A	~2.5	–
CC1=C(CO)C(=O)O[C@@H]([C@@H](C)[C@H]2CC[C@H]3[C@@H]4C[C@H](Cl)[C@]5(O)[C@@H](O)C=CC(=O)[C@]5(C)[C@H]4CC[C@]23C)C1 [6a-chloro-5b-hydroxywithaferin A]	~3.2	–
Cn1cnc2c1c(=O)[nH]c(=O)n2C [theobromine]	~-0.78	–
NCCCC(=O)O [GABA, gamma-aminobutyric acid]	~-3	–
CCCCCCCC/C=C\CCCCCCCC(=O)O [oleic acid]	–	absorbed via the lymphatic system [4]: 85%; absorbed via the portal vein [4]: 15%
CC(C)=C[C@H]1C[C@](C)(O)[C@@H]2[C@H]3CC[C@@H]4[C@@]5(C)CC[C@H](O[C@@H]6OC[C@H](O)[C@H](O[C@@H]7O[C@H](CO)[C@@H](O)[C@H](O)[C@H]7O)[C@H]6O[C@@H]6O[C@@H](CO)[C@H](O)[C@H]6O)C(C)(C)[C@@H]5CC[C@@]4(C)[C@@]34CO[C@@]2(C4)O1 [bacopaside X]	~2.2	–
CC(C)=C[C@H]1C[C@](C)(O)[C@H]2[C@H]3CC[C@@H]4[C@@]5(C)CC[C@H](O[C@@H]6O[C@H](CO)[C@@H](O)[C@H](O[C@@H]7O[C@H](CO)[C@@H](O)[C@H](O)[C@H]7O)[C@H]6O[C@@H]6O[C@@H](CO)[C@H](O)[C@H]6O)C(C)(C)[C@@H]5CC[C@@]4(C)[C@@]34CO[C@@]2(C4)O1 [bacoside A3]	~2.1	–
O=CC=Cc1ccccc1 [Cinnamaldehyde]	–	antifungal inhibitory activity [5]: strong inhibitory activity
COc1ccc(CCc2cc(OC)cc(=O)o2)cc1 [7,8-dihydroyangonin]	~2.9	–
COc1cc2c(c(OC)c1OC)-c1c(cc(OC)c(OC)c1OC)C[C@H](C)[C@H](C)C2 [(-)-schisandrin A]	~3.6	–
(R)-kawain	~2.7	–
COc1cc(/C=C/c2ccccc2)oc(=O)c1 [5,6-dehydrokawain]	~2.9	–
N[C@@H](Cc1ccccc1)C(=O)O [L-phenylalanine]	~-1.38	–
COc1cc2c(c(OC)c1OC)-c1c(cc(OC)c(OC)c1OC)C[C@](C)(O)[C@@H](C)C2 [schisandrol A]	~3.4	–
COc1ccc([C@@]23CCC(=O)C[C@@H]2N(C)CC3)cc1OC [mesembrine]	~1.5	–
hericerin	~6.4	–
N[C@@H](Cc1c[nH]c2ccc(O)cc12)C(=O)O [5-HTP, 5-hydroxytryptophan]	~-2	–
